Test results reported in patent US10617654B2, “Use of fenoterol and fenoterol analogues in the treatment of glioblastomas and astrocytomas” (priority 2010, dated 2020).
“And” between values parts separate entries of the source, which are not always exact repeats. Identical values can stand only once. Like-named read-outs stand apart in the source and are kept apart here.

How the values were obtained:
[1] = test system: 1321N1 cells; assay: Inhibition of mitogenesis, [3H]-thymidine incorporation in 1321N1 cells; assay type: cell-based, human
[2] = target: β2-AR (Homo sapiens (Human), UniProt P07550); conditions: previously reported; cited from earlier work
Chain of β2-AR (P07550 whole entry): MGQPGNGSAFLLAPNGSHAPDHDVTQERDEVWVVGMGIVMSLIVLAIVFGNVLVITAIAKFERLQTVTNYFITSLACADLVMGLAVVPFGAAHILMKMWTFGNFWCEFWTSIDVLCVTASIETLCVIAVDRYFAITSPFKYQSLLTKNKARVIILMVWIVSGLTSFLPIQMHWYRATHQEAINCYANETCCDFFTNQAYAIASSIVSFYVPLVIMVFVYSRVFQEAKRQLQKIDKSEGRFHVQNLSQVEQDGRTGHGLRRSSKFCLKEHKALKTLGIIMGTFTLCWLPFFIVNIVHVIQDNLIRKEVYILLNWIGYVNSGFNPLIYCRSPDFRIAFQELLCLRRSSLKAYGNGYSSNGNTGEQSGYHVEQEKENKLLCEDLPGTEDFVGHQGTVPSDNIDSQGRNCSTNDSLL

[3] = for Individual plasma concentration: individual rat; for Individual plasma concentration / systemic exposure (AUC) compared to (R,R)-fenoterol / Plasma concentration, Average: 5 mg/kg IV
Experimental: Dose calculations (mg/kg) were based on the individual body weight measured on the day of treatment. Study duration for pharmacokinetic studies was 6 hours. […] Urine was collected for 0-6 hours and 6 to 24 hours from 3 rats in each treatment group.
In the two-compartment model, the drug distributes into two compartments, the central compartment and the tissue, or peripheral compartment. The central compartment represents the blood, extracellular fluid, and highly perfused tissues. The drug distributes rapidly and uniformly in the central compartment. A second compartment, known as the tissue or peripheral compartment, contains tissues in which the drug equilibrates more slowly. Drug transfer between the two compartments is assumed to take place by first-order processes.
The following abbreviations are utilized in Table 4 below: alpha—macro rate constant associated with the distribution phase; beta—macro rate constant associated with the elimination phase; A, B—zero time intercept associated with the alpha phase and beta phase, respectively; AUC—area under the curve; T1/2 (K10)—half-life associated with the rate constant K10; K10—elimination rate—rate at which the drug leaves the system from the central compartment; K12—rate at which drug enters tissue compartment from the central compartment; K21—rate at which drug enters central compartment from tissue compartment; V1—volume of distribution of the central compartment; V2—volume of distribution of the tissue compartment; Vss—volume of distribution at steady state; and Cl—clearance.

[4] = test system: 1321N1 xenograft; assay: 1321N1 xenograft implanted in the flank of SKID mice; assay type: in vivo; conditions: IP twice a day; day 3-10 30 mg/kg/day, day 10-42 50 mg/kg/day
[5] = Brain and plasma analysis of [3H]-(R,R)-methoxyfenoterol after IV administration; assay type: in vivo, male Sprague-Dawley rats; conditions: rats, IV
Experimental: An overview of the research study design for evaluating the brain-to-plasma distribution of [^3H]
(specific activity 57 Ci/mmol); vehicle was sterile saline, 0.9% sodium chloride, USP. Dose formulations were prepared on the day of the study. The amount of radioactivity in the dose formulation was determined by liquid scintillation. The study lasted for an hour and radioactivity levels in plasma and brain tissue were evaluated at the conclusion of the study. Approximately 5 mls of whole blood was collected. Blood samples were collected via cardiac puncture, transferred into a tube containing K3EDTA as the anticoagulant and kept on wet ice until processed to plasma. To generate plasma, samples were centrifuged within 15 minutes of collection at 2,500 RPM for 15 minutes at room temperature. Plasma was divided equally into three labeled cryovials and stored on ample dry ice until transferred to a freezer set at ≤−20° C. for storage until analysis. Duplicate aliquots were weighed and then combined with scintillation cocktail. The [^3H] radioactivity was determined on a liquid scintillation counter. Brain samples were snap frozen in liquid nitrogen and stored at ≤−70° C. until analysis. Whole brain tissue was homogenized and the weight of the homogenate was determined. Duplicate aliquots from the homogenate were weighed, solubilized and then combined with scintillation cocktail. The [^3H] radioactivity was determined on a liquid scintillation counter.

[6] = test system: rat cardiomyocyte; assay: Rat cardiomyocyte contractility model; assay type: cell-based
[7] = rats, 5 mg/kg intravenous, two-compartment open model

Compound: Cc1ccc(OCC(O)C(C)NC(C)C)c2c1CCC2 (stereo not drawn) [ICI 118-551, reference compound]
- pA2 ([1]; competitive inhibition of inhibitory effect of (R,R)-fenoterol, 1321N1 cells): 8.9
- slope (pA2 analysis) ([1]; inhibition of effect of (R,R)-fenoterol, 1321N1 cells): −1.3±0.3

Compound: CC(C)NCC(O)c1ccc(O)c2[nH]c(=O)ccc12 (stereo not drawn) [Compound 50]
- Ki [2]: 170 nM
- Ki β1/Ki β2 [2]: 1.7

Compound: C[C@@H](Cc1cccc2ccccc12)NC[C@H](O)c1cc(O)cc(O)c1.O=C(O)/C=C/C(=O)O [(R,S)-5, (R,S)-(−)-5-{1-hydroxy-2-[1-methyl-2-(1-naphthyl)ethylamino]ethyl}-1,3-benzenediol fumarate]
- Individual plasma concentration ([3]; 5 min, listed as (R,S)-naphthylfenoterol, fumarate): 2.52 µg/mL and 2.10 µg/mL
- Individual plasma concentration ([3]; 240 min, listed as (R,S)-naphthylfenoterol, fumarate): 0.11 ug/ml (3×) and 0.13 ug/ml (2×)
- Individual plasma concentration ([3]; 300 min, listed as (R,S)-naphthylfenoterol, fumarate): 0.10 ug/ml (2×) and 0.11 ug/ml (2×) and 0.12 ug/ml
- systemic exposure (AUC) compared to (R,R)-fenoterol ([3]; rats): significantly higher
- Plasma concentration, Average ([3]; rats, 5 min): 2110 ng/mL
- Plasma concentration, Average ([3]; rats, 15 min): 680 ng/mL
- Plasma concentration, Average ([3]; rats, 30 min): 430 ng/mL
- Plasma concentration, Average ([3]; rats, 60 min): 340 ng/mL
- Plasma concentration, Average ([3]; rats, 120 min): 240 ng/mL
- Plasma concentration, Average ([3]; rats, 240 min): 120 ng/mL
- Plasma concentration, Average ([3]; rats, 300 min): 110 ng/mL
- Plasma concentration, Average ([3]; rats, 360 min): 90 ng/mL
- A (zero time intercept, alpha phase) [3, 7]: 4.0365 µg/mL
- AUC [3, 7]: 116.88 µg·min/mL
- B (zero time intercept, beta phase) [3, 7]: 0.4372 µg/mL
- Cl [3, 7]: 12.66 mL/min
- T1/2 (K10) [3, 7]: 18.11 min
- Vss [3, 7]: 2203.75 mL

Compound: COc1ccc(C[C@@H](C)NC[C@H](O)c2cc(O)cc(O)c2)cc1.O=C(O)/C=C/C(=O)O [(R,R)-2, (R,R)-(−)-1-p-Methoxyphenyl-2-(β-3′,5′-dihydroxy-phenyl-β-oxy)ethylamino-propane Fumarate]
- growth of 1321N1 xenograft [4]: inhibit growth
- Individual plasma concentration ([3]; 300 min, listed as (R,R)-methoxyfenoterol): 0.06 ug/ml and 0.07 ug/ml (3×) and 0.09 ug/ml
- systemic exposure (AUC) compared to (R,R)-fenoterol ([3]; rats): significantly higher
- Plasma concentration, Average ([3]; rats, 15 min): 580 ng/mL
- Plasma concentration, Average ([3]; rats, 30 min): 410 ng/mL
- Plasma concentration, Average ([3]; rats, 60 min): 260 ng/mL
- Plasma concentration, Average ([3]; rats, 120 min): 170 ng/mL
- Plasma concentration, Average ([3]; rats, 240 min): 120 ng/mL
- Plasma concentration, Average ([3]; rats, 300 min): 70 ng/mL
- Plasma concentration, Average ([3]; rats, 360 min): 60 ng/mL
- A (zero time intercept, alpha phase) [3, 7]: 4.6437 µg/mL
- AUC [3, 7]: 96.1011 µg·min/mL
- B (zero time intercept, beta phase) [3, 7]: 0.3900 µg/mL
- passage through the blood brain barrier [5]: capable of passing through the blood brain barrier

Compound: CC[C@@H](Cc1ccc(O)cc1)NC[C@H](O)c1cc(O)cc(O)c1 [(R,S)-ethylfenoterol, (R,S)-(−)-ethylfenoterol]
- IC50 ([1]; Homo sapiens, 1321-N1, read-out: Mitogenesis Inhibition IC50): 17.9 ± 4.56 nM

Compound: COc1ccc(C[C@@H](NC[C@H](O)c2cc(O)cc(O)c2)C(C)C)cc1 [(R,R)-4-methoxy-isopropylfenoterol]
- IC50 ([1]; [3H]-thymidine incorporation, 1321N1 cells, mean ± SD, n = 4, read-out: Mitogenesis Inhibition IC50): 946 nM
- EC50 [6]: > 10000 nM
